Among the test systems are 786-0 renal; BT-549 breast; CCRF-CEM leukemia; HS 578T breast; MOLT-4 leukemia; NCI-H23 lung; PC-3 prostate; SK-MEL-2 melanoma; TK-10 renal; UACC-62 melanoma.
What all share (test): NCI tumour cell line growth inhibition, 48 h

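Five compound concentrations were applied to cells in 96-well plates for 48 hours; endpoints were derived by simple linear interpolation of the resulting dose-response curve. At the GI50, growth is halved. Definition used: TGI = concentration required for complete inhibition of growth.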 Some results are limits rather than exact numbers.

On to `Cc1c(C(=O)OCc2ccccc2)[n+](=O)c2cc(Cl)c(Cl)cc2n1[O-]`, for which the TGI with 786-0 renal was 30.5 µM; in the experiment with BT-549 breast, 44.4 µM; in the experiment with CCRF-CEM leukemia, 39.4 µM; with HS 578T breast, 47.4 µM; in the experiment on MOLT-4 leukemia, 21.5 µM; in the experiment with NCI-H23 lung, 32.5 µM. Also, the TGI in the experiment on PC-3 prostate worked out at 55 µM; in the experiment with SK-MEL-2 melanoma it was 38.6 µM; in the experiment with TK-10 renal, 40.3 µM; with UACC-62 melanoma, 31 µM.
Turning to `O=c1c(-c2ccccc2)c(SCCO)n(-c2ccccc2)c(=S)n1-c1ccccc1`, the TGI in the experiment on 786-0 renal, with BT-549 breast, in the experiment with CCRF-CEM leukemia, with HS 578T breast, in the experiment on MOLT-4 leukemia and in the experiment on NCI-H23 lung was above 100 µM each time. Moreover, the TGI in the experiment with PC-3 prostate, in the experiment on SK-MEL-2 melanoma, in the experiment on TK-10 renal and in the experiment on UACC-62 melanoma was above 100 µM in each case.
With `O=C1NC(=O)C(C(CC(=O)c2ccc(Cl)cc2)c2ccc(Cl)cc2)C(=O)N1` (stereo not given), the TGI in the experiment on 786-0 renal, in the experiment with BT-549 breast, in the experiment with CCRF-CEM leukemia, with HS 578T breast, with MOLT-4 leukemia and in the experiment with NCI-H23 lung was above 100 µM in each case. Besides, the TGI in the experiment on PC-3 prostate, in the experiment with SK-MEL-2 melanoma and in the experiment on UACC-62 melanoma was above 100 µM in each case.
For `C/C(=N\Nc1nc2cc(C(F)(F)F)ccc2s1)c1ccccn1`, the TGI is 5.5 µM in the experiment with 786-0 renal; above 40.1 µM with BT-549 breast; above 100 µM in the experiment with CCRF-CEM leukemia; 14.6 µM in the experiment with HS 578T breast; 6.74 µM in the experiment with NCI-H23 lung; 4.69 µM with SK-MEL-2 melanoma. The TGI in the experiment with TK-10 renal came out at 17.3 µM; with UACC-62 melanoma, 3.38 µM.
Take `CCOP(=O)(O)CN1CCNCCN(CP(=O)(O)OCC)CCNCC1`: the TGI with 786-0 renal, in the experiment on BT-549 breast, in the experiment on CCRF-CEM leukemia, in the experiment with HS 578T breast, in the experiment with MOLT-4 leukemia and in the experiment on PC-3 prostate was above 100 µM each time. In addition, the TGI with SK-MEL-2 melanoma, in the experiment with TK-10 renal and in the experiment on UACC-62 melanoma was above 100 µM in each case.
As for `CCN(CC)C(=S)SS(=O)(=O)c1cccc(N)c1`, the TGI in the experiment with 786-0 renal, with BT-549 breast, in the experiment with HS 578T breast, in the experiment on MOLT-4 leukemia, with NCI-H23 lung and in the experiment with SK-MEL-2 melanoma was above 100 µM throughout. Besides, the TGI in the experiment on TK-10 renal and in the experiment with UACC-62 melanoma was above 100 µM in each case.
With `Cc1cc(C)c2c(c1)C(=O)/C(=C/c1ccccc1C(=O)O)C2`, the TGI with 786-0 renal, in the experiment on BT-549 breast, in the experiment with CCRF-CEM leukemia, in the experiment on HS 578T breast, with MOLT-4 leukemia and in the experiment on PC-3 prostate was above 100 µM in each case. The TGI with SK-MEL-2 melanoma, in the experiment with TK-10 renal and with UACC-62 melanoma was above 100 µM in each case.
As for `Cc1ccc(S(=O)(=O)Nn2c(O)c(C#N)c(-c3ccc(Cl)cc3)c(C#N)c2=O)cc1`, the TGI in the experiment on 786-0 renal, in the experiment on BT-549 breast, with CCRF-CEM leukemia, in the experiment on HS 578T breast, in the experiment on MOLT-4 leukemia and in the experiment on PC-3 prostate was above 100 µM each time. Also, the TGI in the experiment on SK-MEL-2 melanoma, in the experiment with TK-10 renal and in the experiment with UACC-62 melanoma was above 100 µM in each case.
For `COc1ccc2cc(CNCCCCCCNCc3ccc4cc(OC)ccc4c3)ccc2c1`, the TGI in the experiment on 786-0 renal was found to be 2.48 µM; in the experiment with BT-549 breast, 3.14 µM; with HS 578T breast, 3.62 µM; in the experiment on NCI-H23 lung, 3.8 µM; with PC-3 prostate, 0.918 µM; in the experiment on SK-MEL-2 melanoma, 2.64 µM. Moreover, the TGI in the experiment with TK-10 renal came to 3.28 µM; in the experiment on UACC-62 melanoma, 2.8 µM.
Regarding `C/C(=N\Nc1nc2ccccc2n1C)c1cc2ccccc2cn1`, the TGI with 786-0 renal is 3.82 µM; in the experiment with BT-549 breast, 13.8 µM; with CCRF-CEM leukemia, above 54.3 µM; in the experiment on HS 578T breast, 15.1 µM; in the experiment with NCI-H23 lung, 7.4 µM; in the experiment on PC-3 prostate, above 20.7 µM. Besides, the figures for the TGI in the experiment on TK-10 renal and in the experiment with UACC-62 melanoma were 6.86 µM and 0.94 µM, respectively.
Take `COc1ccc2[nH]c(O)c(/C=c3/cc4c(c(-c5ccc(F)c(OC)c5)n3)=Nc3ccccc3-4)c2c1`: the GI50 is 1.89 µM in the experiment on BT-549 breast; 2.13 µM in the experiment with CCRF-CEM leukemia; 1.87 µM in the experiment on HS 578T breast; 2.3 µM with MOLT-4 leukemia; 4.68 µM in the experiment with NCI-H23 lung; 8.11 µM with PC-3 prostate. The GI50 in the experiment with SK-MEL-2 melanoma was 2.23 µM; in the experiment with TK-10 renal, 2.91 µM; with UACC-62 melanoma it was 1.7 µM. In addition, the TGI amounted to 3.91 µM in the experiment with BT-549 breast; 9.88 µM in the experiment with CCRF-CEM leukemia; 5.04 µM with HS 578T breast; 5.68 µM in the experiment with MOLT-4 leukemia; 38.2 µM in the experiment with NCI-H23 lung; 38.4 µM in the experiment on PC-3 prostate. The TGI stood at 5.41 µM with SK-MEL-2 melanoma, 6.95 µM with TK-10 renal and 3.16 µM with UACC-62 melanoma.
Turning to `O=C1CC(=O)n2cnc3cccc(c32)N1`, the TGI in the experiment with 786-0 renal, in the experiment on BT-549 breast, with CCRF-CEM leukemia, in the experiment on HS 578T breast, with NCI-H23 lung and in the experiment with PC-3 prostate was above 100 µM each time. Also, the TGI in the experiment with SK-MEL-2 melanoma and in the experiment with UACC-62 melanoma was above 100 µM in each case.
With `COc1cc(C2c3cc4c(cc3C3OC[C@@H]2C3CO)OCO4)cc(OC)c1OC` (stereo not given in full), the TGI in the experiment with 786-0 renal is above 100 µM; in the experiment on BT-549 breast it was 97.6 µM; in the experiment with CCRF-CEM leukemia, above 100 µM; in the experiment on HS 578T breast, 95.7 µM; in the experiment on MOLT-4 leukemia it was above 100 µM; in the experiment on PC-3 prostate it was above 100 µM. Also, the TGI in the experiment with SK-MEL-2 melanoma and with TK-10 renal was above 100 µM in each case.
Consider `COc1cnc2c(c1)C(=O)c1c-2n(CCCNCCO)c(=O)c2ccncc12`, for which the GI50 is 2.03 µM in the experiment with BT-549 breast; 0.626 µM with CCRF-CEM leukemia; 2.32 µM in the experiment on HS 578T breast; 0.405 µM in the experiment on MOLT-4 leukemia; 1.65 µM in the experiment with NCI-H23 lung; 1.44 µM in the experiment on PC-3 prostate. The values for the GI50 with SK-MEL-2 melanoma, with TK-10 renal and with UACC-62 melanoma were 1.81 µM, 2.05 µM and 0.552 µM, respectively. Further, the TGI came out at 12.7 µM in the experiment on BT-549 breast; 12.5 µM with CCRF-CEM leukemia; 10.7 µM in the experiment with HS 578T breast; 10.2 µM in the experiment on MOLT-4 leukemia; 6.91 µM in the experiment on NCI-H23 lung; 11.1 µM with PC-3 prostate. The values for the TGI with SK-MEL-2 melanoma, in the experiment on TK-10 renal and in the experiment with UACC-62 melanoma were 4.75 µM, 19.3 µM and 2.12 µM, respectively.
